The record followed here is paper PMC6270921, “Study on the Cytotoxic Activity of Drimane Sesquiterpenes and Nordrimane Compounds against Cancer Cell Lines” (Molecules, 2014).

Data set [1] relates to DU-145 prostate cancer cell line. Briefly: Cell viability, sulforhodamine B assay. It counts as cell-based. To be noted: Homo sapiens, 72 h exposure, dilutions 12.5 to 100 μM, read-out: Cytotoxicity IC50, DU145. On the procedure: (§1) The cytotoxicity of compounds 1–12 was evaluated in vitro against different cancer cell lines: MCF-7 breast cancer, DU-145 and PC-3 human prostate cancer, and one non-tumor cell line, human colon epithelial cells CCD 841 CoN (CoN). […] Four serial dilutions (from 12.5 to 100 μM) for each sample were evaluated in triplicate.
(§2) The experimental cell cultures were obtained from the American Type Culture Collection (Rockville, MD, USA). MCF-7 cells (breast cancer cell line), PC-3 and DU-145 (prostate cancer cell lines), and human colon epithelial cells CCD 841 CoN (non-tumoral cell line) were grown in Dulbecco’s modified Eagle’s medium (DMEM) containing 10% FCS, 100 U/mL penicillin, 100 μg/mL streptomycin, and 1 mM glutamine. Cells were seeded into 96 well microtiter plates in 100 μL at a plating density of 5 × 10^3 cells/well. After 24 h incubation at 37 °C under a humidified 5% CO2 atmosphere to allow cell attachment, the cells were treated with different concentrations of drugs and incubated for 72 h under the same conditions. Stock solutions of compounds were prepared in ethanol and the final concentration of this solvent was kept constant at 1%. Control cultures received 1% ethanol alone.
(§3) The sulforhodamine B assay was used according to the method of Skehan et al.. Briefly, the cells were set up at 3 × 10^3 cells per well of a 96 200 μL well, flat-bottomed, microplate. Cells were incubated at 37 °C in a humidified 5% CO2/95% air mixture and treated with the compounds at different concentrations for 72 h. At the end of drug exposure, cells were fixed with 50% trichloroacetic acid at 4 °C. After washing with water, cells were stained with 0.1% sulforhodamine B (Sigma-Aldrich, St. Louis, MO, USA), dissolved in 1% acetic acid (50 μL/well) for 30 min, and subsequently washed with 1% acetic acid to remove unbound stain. Protein-bound stain was solubilized with 100 μL of 10 mM unbuffered Tris base, and the cell density was determined using a […] plate reader (wavelength 540 nm). Values shown are the mean ± SD of three independent experiments in triplicate. The software used to calculate the IC50 values was GraphPad (GraphPad Software, San Diego, CA, USA).

Data set [2] is described as follows: Cell viability, sulforhodamine B assay. Particulars: human, CCD 841 CoN colon epithelial cells (non-tumoral cell line), 72 h exposure, dilutions 12.5 to 100 μM, non-tumor cell line, read-out: Cytotoxicity IC50, CoN. It counts as cell-based. Here is the method:
as §1, §2, §3
(In SRB staining, fixed cells bind dye roughly in proportion to their protein.)

Data set [3] deals with MCF-7 breast cancer cell line. Briefly: Cell viability, sulforhodamine B assay. It counts as cell-based. To be noted: Homo sapiens, MCF7, 72 h exposure, dilutions 12.5 to 100 μM, read-out: Cytotoxicity IC50, MCF-7. On the procedure:
as §1, §2, §3

In data set [4] the test system is PC-3 prostate cancer cell line. Briefly: Cell viability, sulforhodamine B assay. Type of data set: cell-based. Particulars: Homo sapiens, 72 h exposure, dilutions 12.5 to 100 μM, read-out: Cytotoxicity IC50, PC-3. On the procedure:
as §1, §2, §3

Data set [5] has as its system panel of cancer cell lines. Briefly: Cytotoxicity against a panel of cancer cell lines (summary). It counts as cell-based. To be noted: Homo sapiens; summary statement of the conclusions. Here is the method:
as §1, §3

Data set [6] has as its system MCF-7 cells. Briefly: Morphological changes, phase contrast microscope. It counts as cell-based, human. Particulars: MCF-7, 50 μM compound for 24 h. On the procedure:
(§4) First, the appearance of morphological changes in the cells treated with 50 μM compound for 24 h was analyzed.

The test system of data set [7] is CoN cells. Briefly: Morphological changes, phase contrast microscope. Type of data set: cell-based, human. Particulars: 50 μM compound for 24 h. On the procedure: as §4
For data set [8], the system named is PC-3 cells. The data set can be described thus: Morphological changes, phase contrast microscope. Type of data set: cell-based, human. Particulars: PC-3, 50 μM compound for 24 h. Here is the method: as §4
In data set [9] the test system is MCF-7 cells. Briefly: Mitochondrial membrane permeability, rhodamine 123 flow cytometry. Type of data set: cell-based, human. From the text: (§5) Mitochondria play a crucial role in the apoptotic cascade by serving as a convergent center of apoptotic signals originating from both the extrinsic and intrinsic pathways. Changes induced in the mitochondrial membrane potential (MMP) have been reported previously to represent a determinant in the execution of cell death. As polygodial has been described as an inhibitor of mitochondrial ATPase and also as nonionic surfactant. This effect may be determinant in cell death, we has analyzed the effect of compounds 1, 8 and 12 on the mitochondrial membrane potential using flow cytometry with rhodamine 123 stain [24]. […] Similar differences were observed after treatments with compounds 1 and 8 at 100 μM.
(§6) Rhodamine 123, a cationic, voltage-sensitive probe that reversibly accumulates in mitochondria, was used to detect changes in transmembrane mitochondrial membrane potentials. Cells were labelled with 1 μM rhodamine 123 at 37 °C in cell medium for 60 min before terminating the experiment. Cells were detached from the plate, after washing with ice cold PBS, and the samples were analyzed by flow cytometry. Data are expressed in percentage of cells with rhodamine 123 [24].
For orientation: A flow cytometer gives signals particle by particle.

Data set [10] has as its system CoN cells. Described as above. Type of data set: cell-based, human.
Excerpt: as §5, §6

For data set [11], the system named is PC-3 cells. Described as above. Type of data set: cell-based, human.
Excerpt: as §5, §6

The test system of a further data set is caspase-3 in MCF-7 cells. Briefly: Caspase 3 activity assay (colorimetric, DEVD-pNA). Type of data set: cell-based, human. To be noted: MCF-7, compound 50 μM; control 1% ethanol. An excerpt:
(§7) Depletion of mitochondrial membrane potential leads to the release of apoptogenic factors, such as cytochrome c in the apoptotic cascade, and activation of caspases. Then we investigated the effects of our compounds on caspase activity. We focused on caspase-3, which is a main executor of apoptosis playing a central role in its biological processing. We analyzed the effect of treatment with the compound 1, 8 and 12 on caspase-3 activation in normal and cancer cells. […] Compound 1 increased the activity of caspase-3 by 3.4 ± 0.1, 1.4 ± 0.1 and 2.8 ± 0.1 times versus control cells in MCF-7 (black), CoN (white) and PC-3 (gray) cells, respectively. Compound 8 increased the activity of caspase 3 by 2.4 ± 0.1, 1.3 ± 0.2 and 2.7 ± 0.1 times versus control cells in MCF-7 (black), CoN (white) and PC-3 (gray) cells, respectively.
(§8) Caspase activity was measured using a colorimetric assay. Briefly, the cells exposed to compounds were collected by centrifugation at 1000 rpm and lysed with lysis buffer (1% Triton X-100, 0.32 M sucrose, 5 mM EDTA, 10 mM Tris–HCl, pH 8.0, 2 mM dithiothreitol, 1 mM PMSF, […] aprotinin, 1 mg/mL leupeptin). Thereafter, the lysates were transferred to wells in a 96-well microplate and were incubated with DEVD-pNA (final concentration 200 μM) specific for caspase-3/7, at 37 °C for 1 h. The intensity of the developed color was read at 405 nm in a microplate reader (SpectraMax, Winooski, VT, USA). The results are expressed as percentages of the control level.

The subject of the next data set is caspase-3 in CoN cells. The data set can be described thus: Caspase 3 activity assay (colorimetric, DEVD-pNA). Type of data set: cell-based, human. Particulars: compound 50 μM, control 1% ethanol.
Excerpt: as §7, §8

A further data set deals with caspase-3 in PC-3 cells. The data set can be described thus: Caspase 3 activity assay (colorimetric, DEVD-pNA). Type of data set: cell-based, human. To be noted: PC-3, compound 50 μM; control 1% ethanol.
Excerpt: as §7, §8

On to `CC1=CC[C@H]2C(C)(C)CCC[C@]2(C)[C@H]1CO` [Compound 3, drimenol], for which the half-maximal inhibitory concentration (IC50) in data set [1], in data set [3] and in data set [4] was above 200 µM each time. In addition, in data set [2], the 50% inhibitory concentration (IC50) – broadly, the concentration that gives 50% inhibition – at 72 h was above 200 µM.
With `CC1(C)CCC[C@]2(C)C3=C(CC[C@@H]12)C(=O)OC3` [Compound 4, confertifolin], the IC50 in [1], in data set [3] and in data set [4] was above 200 µM in each case. Besides, the IC50 at 72 h in data set [2] was above 200 µM.
For `CC1(C)CCC[C@]2(C)C3=C(CC[C@@H]12)COC3=O` [Compound 5, isodrimenin], the IC50 in data set [1] was 90.5 ± 8.2 µM; in [3], above 200 µM; in [4], 87.6 ± 9.2 µM; in [5] it was below 200 µM. In data set [2], the IC50 at 72 h was above 200 µM.
Turning to `CC1(C)CCC[C@]2(C)[C@H](CO)C(CO)=CC[C@@H]12` [Compound 6, 9α-drimendiol], the IC50 in [1], in data set [3] and in data set [4] was above 200 µM throughout. The IC50 at 72 h in data set [2] is above 200 µM.
On to `CC1(C)CCC[C@]2(C)[C@@H](CO)C(CO)=CC[C@@H]12` [Compound 7, 9β-drimendiol], for which the half-inhibitory concentration (IC50) in data set [1], in data set [3] and in data set [4] was above 200 µM each time. Also, the IC50 at 72 h in data set [2] was above 200 µM.
Consider `CC1(C)CCC[C@]2(C)[C@H]3O[C@@]3(C)C(=O)C[C@@H]12` [Compound 9], for which the IC50 was 93.5 ± 6.7 µM in [1], above 200 µM in data set [3], 97.5 ± 10.4 µM in data set [4] and below 200 µM in data set [5]. Besides, the IC50 at 72 h in data set [2] was above 200 µM.
For `CC(=O)O[C@H]1C[C@H]2C(C)(C)CCC[C@]2(C)C=C1C` [Compound 10], the IC50 in [1], in data set [3] and in data set [4] was above 200 µM in each case. Moreover, the IC50 at 72 h in [2] is above 200 µM.
For the molecule `CC(=O)O[C@H]1C[C@H]2C(C)(C)CCC[C@]2(C)[C@@H]2O[C@]12C` [Compound 11, (5S,7S,8R,9S,10S)-4,4,8β,10β-tetramethyldecahydronaphtho[8,9-α]oxiren-7-yl acetate], the IC50 in [1], in [3] and in data set [4] was above 200 µM each time. The IC50 at 72 h in [2] was above 200 µM.
With `CC1(C)CCCC2(C)C1CC(=O)C1(C)OC12` (stereo not drawn) [Compound 12, 8α,9α-epoxi-11-nordriman-7-one], the IC50 is above 200 µM in data set [1], 88.4 ± 7.1 µM in data set [3], 90.2 ± 8.8 µM in data set [4] and below 200 µM in data set [5]. In addition, the IC50 at 72 h in data set [2] is above 200 µM. The “morphological changes of cells” value with MCF-7 cells [6], with CoN cells [7] and in the data set on PC-3 cells [8] was “severely distorted” each time. Moreover, the “percentage of rhodamine 123 stained cells” value worked out at 111.4 ± 8.9% with MCF-7 cells [9] (MCF-7, compound 50 µM, control treated cells assigned 100%); 111.3 ± 9.8% in the data set with MCF-7 cells [9] (MCF-7, compound 100 µM, control treated cells assigned 100%); 102.6 ± 9.1% in the data set with CoN cells [10] (compound 50 µM, control treated cells assigned 100%); 124.9 ± 9.7% in the data set with CoN cells [10] (compound 100 µM, control treated cells assigned 100%); 139.1 ± 12.4% in the data set with PC-3 cells [11] (PC-3, compound 50 µM, control treated cells assigned 100%); 149.3 ± 21.3% in the data set with PC-3 cells [11] (PC-3, compound 100 µM, control treated cells assigned 100%). In addition, the “increase of caspase-3 activity” value in the data set with caspase-3 in MCF-7 cells, with caspase-3 in CoN cells and with caspase-3 in PC-3 cells was “did not change” in each case.
For the molecule `N#CC(C#N)=NNc1ccc(OC(F)(F)F)cc1` [FCCP, reference compound], the “percentage of rhodamine 123 stained cells” value in the data set on MCF-7 cells [9] (MCF-7, positive control FCCP 10 μM) amounted to 7.4 ± 0.4 %; in the data set on CoN cells [10] (positive control FCCP 10 μM), 6.8 ± 1.3 %; with PC-3 cells [11] (PC-3, positive control FCCP 10 μM), 5.2 ± 0.4 %.
